Where two headings read alike, the source gives them in different places.
How the values were obtained:
[1] = preliminary toxicity studies in mice; format: in vivo; details: 6 week old mice
Description: (§1) Preliminary toxicity studies in mice have established an LD50 of 300 μg./25 g of body weight in 6 week old mice for the compound of Example 1. The compounds may be used as anti-bacterial or anti-viral agents in plants or in animals. Virus infections such as West Nile virus infections in mice are susceptible to the compound of the Example 1 at a dose of 10 μg/day/mouse. Plant bacterial infections such as crown gall caused by Agrobacterium tumefaciens may be treated or prevented by the application of a 0.1% solution of compounds of the invention.

West Nile virus = West Nile virus infections in mice; format: in vivo; details: 10 μg/day/mouse
Description: as §1

[2] = tested on: producer T-cell lymphocytes; assay: lymphokine production in producer T-cell lymphocytes in vivo; details: alone
[3] = tested on: producer T-cell lymphocytes; assay: lymphokine production in producer T-cell lymphocytes in vitro; format: cell-based; details: alone
IL-2 producer cells = assay: proliferation of IL-2 producer cells; format: cell-based
IL-2 = assay: mouse spleen assay, IL-2 activity of supernatants (tritiated thymidine); format: cell-based, mouse (male Balb-c); details: for IL-2 activity, 12.5% supernatant / IL-2 activity, 25% supernatant: Table 1, PMA, 96 h; for IL-2 production, supernatant 12.5% / IL-2 production, supernatant 25%: Table 2; for IL-2 activity, 12.5% supernatant / IL-2 production, supernatant 12.5%: 12.5% supernatant; for IL-2 activity, 25% supernatant / IL-2 production, supernatant 25%: 25% supernatant
Description: Two citrate buffer solutions are prepared by combining aqueous 0.05M sodium citrate with 0.05M citric acid or 0.1M sodium citrate and 0.1M citric acid. […] To these solutions are added up to 5 mg/ml of ammomium trichloro (dioxoethylene-0,0') tellurate.
After storage at various temperatures for about two and a half months, dilutions of these solutions were prepared and a mouse spleen assay was performed as follows:
Spleens were removed from male Balb-c mice 6 to 8 weeks of age. The spleen cells were pushed through stainless steel 60 mesh (U.S. standard) nets resting in […] Petri dishes containing PBS in order to separate the cells. The cells were then collected into centrifuge tubes and spun at 1000 rpm for 10 minutes. The supernatant was discarded and cells were treated with 5 ml of hypotonic buffer (0.15 MNH4 Cl; 0.01M KHCO3 dissolved in double distilled water, pH 7.2) for exactly two minutes. Thereafter, PBS* was added to the cells amd the test tubes were centrifuged for 10 minutes at 1000 rpm. The cells were rinsed twice and counted in a heamocytometer using trypan blue to test for viability. The cells were brought to a concentration of 10^7 viable cells/ml. […] Thereafter, the cells were incubated at 37° C., 7.5% CO2 for 96 h. Supernatants were collected and assayed for IL-2 activity using tritiated thymidine (^3 H-TdR).
A 0.04M tartrate buffer in also prepared using the same procedures. The complex is formed by adding ammonium trichloro (dioxoethylene-0,0'-) tellurate to the aqueous tartrate buffer. The effectiveness of the complex in stimulating IL-2 production was determined in the mouse spleen assay.

[4] = solubilization in aqueous buffer; format: physicochemical
Text: The complexes of the invention may be formed by contacting a compound of Formulas A-E with a non-toxic pharmaceutically acceptable complexing agent which forms a water soluble complex with said tellurium or selenium compound. Suitable complexing agents include hydroxy polycarboxylic acids, polycarboxylic acids or polyhydroxy polycarboxylic acids. Generally, it is preferred to prepare the complexes of the invention by contacting a compound of Formulas A-E with a buffer system containing either citric acid or tartaric acid and a corresponding alkali metal salt thereof, such as sodium or potassium.
Generally equimolar amounts of acids and the corresponding alkali metal salts may be combined in aqueous solutions with a compound of Formulas A-E to form the complex of the invention; 0.05M-0.5M concentration of the buffer are preferred but higher or lower amounts may be utilized provided that the concentration is adequate to dissolve the particular compound of Formulas A-E. Higher molarities may be used to provide concentrates that may be diluted prior to IV administration or to prepare other dosage forms. The amount of the compound of Formulas A-E is dependent on the ultimate use of the product. […] This is in contrast to the phosphate buffer (PBS) from which only about 200 mcg/ml of ammonium trichloro (dioxoethylene-0,0') tellurate can be solubilized. […]

human mononuclear cells = assay: stimulation of human mononuclear cells, proliferation (3H-methylthymidine); format: cell-based; set-up: unit not given here; details: Table 3
Description: Citrate and tartrate complexes of ammonium trichloro (dioxoethylene-0,0') tellurate are tested for the stimulation of human mononuclear cells.
Venous whole blood (with heparin; Evans 10 IU/ml blood) is diluted with RPMI in a ratio of 1:1. […] Each tube is provided with 3 ml Lymphoprep and 6 to 7 ml diluted blood. The tubes are centrifuged 30 minutes at 1600 rpm at room temperature. After the centrifugation mononuclear cells are collected from the interphase fraction and washed with RPMI three times. The cells are resuspended in RPMI, counted on a hemocytometer, using trypan blue to test for viability and then are brought to a concentration of […] in enriched RPMI. The concentrations set forth in Table 3 were added in a volume of 10% of cell mixture. Aliquots of 0.2 ml from each sample were placed in wells of microplates (NUNC) (triplicates). The microplates are incubated for 72 hours at 37° C. after which ^ 3 H-methylthymidine, 1U Ci/well (Nuclear Research Center, Israel) are added to the cultures. Cells were further incubated overnight and harvested with a cell harvester.

## Cl[Te]1(Cl)(Cl)OCCO1.N [Example 1, ammomium trichloro (dioxoethylene-0,0') tellurate]
[1]
  LD50: 300 μg./25 g of body weight
West Nile virus
  susceptibility of West Nile virus infections: susceptible

## O=[Te]=O [TeO2]
[2]
  induction of lymphokine production in vivo: will induce lymphokine production
[3]
  induction of lymphokine production in vitro: will induce lymphokine production
IL-2 producer cells
  proliferation in producing cells such as IL-2 producer cells: will not cause proliferation

## Cl[TeH]1(Cl)(Cl)OCCO1 [ammonium trichloro (dioxoethylene-0,0') tellurate]
IL-2; 0.05 μg/ml
  IL-2 activity, 12.5% supernatant: 1865 cpm
  IL-2 activity, 25% supernatant: 3762 cpm
  IL-2 production, supernatant 12.5%: 1865 cpm
IL-2; 0.1 μg/ml
  IL-2 activity, 12.5% supernatant: 28035 cpm
  IL-2 activity, 25% supernatant: 44378 cpm
  IL-2 production, supernatant 12.5%: 28035 cpm
  IL-2 production, supernatant 25%: 44378 cpm
IL-2; 0.5 μg/ml ammonium trichloro(dioxoethylene) tellurate
  IL-2 activity, 25% supernatant: 43833 cpm
IL-2; 0.5 μg/ml
  IL-2 activity, 12.5% supernatant: 35270 cpm
  IL-2 production, supernatant 12.5%: 35270 cpm
  IL-2 production, supernatant 25%: 43833 cpm
IL-2
  IL-2 production, supernatant 25%: 3762 cpm
[4]; citrate buffer, aqueous buffer, read-out: concentration solubilized in citrate
  solubility: ≥ 5000 µg/mL
[4]; phosphate buffer (pbs), read-out: concentration solubilized in phosphate buffer
  solubility: ~200 µg/mL
Human mononuclear cells; 0.05 μg/ml, PMA 0.5 ng/ml cells
  proliferation of mononuclear cells: 6663
Human mononuclear cells; 0.05 μg/ml, PMA 1.5 ng/ml cells
  proliferation of mononuclear cells: 12923
Human mononuclear cells; 0.1 μg/ml, PMA 0.5 ng/ml cells
  proliferation of mononuclear cells: 19810
Human mononuclear cells; 0.1 μg/ml, PMA 1.5 ng/ml cells
  proliferation of mononuclear cells: 42857
Human mononuclear cells; 0.5 μg/ml, PMA 0.5 ng/ml cells
  proliferation of mononuclear cells: 2945
Human mononuclear cells; 0.5 μg/ml, PMA 1.5 ng/ml cells
  proliferation of mononuclear cells: 3287
